How the values were obtained:
MOG-induced EAE [1] = assay: MOG-induced EAE mouse model of MS, clinical signs; format: in vivo, C57Bl/6 mice; conditions: for Percent Inhibition-1: inhibition according to incidence vs vehicle; for Onset (of disease): no EAE counted as 31 days; for Percent Inhibition-3: reduction of GMS vs vehicle; for Percent Inhibition-2: reduction of MMS vs vehicle; for Incidence: sick/total
[2] = set-up: species or system mice; conditions: mouse, in vivo
Procedure: PTX was injected intraperitoneally on the day of induction and 48 hours later at 100 ng/0.2 ml/mouse. […] All animals were monitored daily for clinical signs from the tenth day post-EAE induction until day 30. Scoring of EAE clinical signs was recorded on observations cards according to the grading system described herein.

JAK2 = JAK2 (Homo sapiens, UniProt O60674); conditions: statement with reference to earlier filings; cited from earlier work
JAK2, sequence (O60674 whole entry, species assumed): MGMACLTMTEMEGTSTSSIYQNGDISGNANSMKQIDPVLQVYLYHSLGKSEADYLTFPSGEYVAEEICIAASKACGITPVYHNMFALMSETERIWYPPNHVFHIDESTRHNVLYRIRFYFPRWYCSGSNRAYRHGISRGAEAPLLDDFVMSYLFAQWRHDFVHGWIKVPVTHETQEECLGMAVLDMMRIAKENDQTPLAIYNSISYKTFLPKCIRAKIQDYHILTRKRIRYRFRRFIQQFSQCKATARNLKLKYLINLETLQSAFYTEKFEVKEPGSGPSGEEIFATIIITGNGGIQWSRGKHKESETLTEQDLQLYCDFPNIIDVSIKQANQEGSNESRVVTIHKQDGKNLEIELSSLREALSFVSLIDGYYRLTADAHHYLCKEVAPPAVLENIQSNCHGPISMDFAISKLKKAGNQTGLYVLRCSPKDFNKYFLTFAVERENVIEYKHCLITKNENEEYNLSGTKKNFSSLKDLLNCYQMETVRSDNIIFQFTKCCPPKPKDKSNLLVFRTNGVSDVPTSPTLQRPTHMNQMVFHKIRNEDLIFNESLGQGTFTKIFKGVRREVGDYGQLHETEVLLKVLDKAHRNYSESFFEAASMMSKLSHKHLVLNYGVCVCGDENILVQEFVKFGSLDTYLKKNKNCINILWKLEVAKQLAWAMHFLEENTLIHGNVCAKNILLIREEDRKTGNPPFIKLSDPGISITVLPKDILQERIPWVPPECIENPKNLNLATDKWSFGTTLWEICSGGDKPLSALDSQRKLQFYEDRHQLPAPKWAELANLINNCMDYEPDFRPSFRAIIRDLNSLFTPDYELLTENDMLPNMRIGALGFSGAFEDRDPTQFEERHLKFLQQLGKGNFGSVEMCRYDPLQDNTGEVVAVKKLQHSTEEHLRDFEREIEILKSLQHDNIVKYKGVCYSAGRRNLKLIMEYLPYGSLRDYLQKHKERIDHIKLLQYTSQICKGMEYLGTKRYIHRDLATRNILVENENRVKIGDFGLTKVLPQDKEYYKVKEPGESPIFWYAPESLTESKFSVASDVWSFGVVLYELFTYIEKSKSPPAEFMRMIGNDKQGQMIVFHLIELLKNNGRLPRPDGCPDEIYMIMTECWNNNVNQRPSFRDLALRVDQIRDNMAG

PLP-induced EAE [3] = assay: Ex vivo blinded pathology scoring in PLP-induced EAE; set-up: species or system SJL/J mice; conditions: 100 mg/kg dose; p<0.05; data not shown
Procedure: Two transverse sections from each cervical and lumbar intumescence (cervico-thoracic and lumbo-sacral vertebral segments) were evaluated. Histological evaluation was performed on 4 μm thick sections stained with hematoxylin-eosin (H&E), Luxol fast blue periodic acid-Schiff (LFB/PAS) and Bielschowsky silver impregnation to assess inflammation, demyelination and axonal pathology. Histological sections were scored blind. Inflammation was evaluated for both gray and white matter, demyelination was evaluated within white matter only, and axonal injury was evaluated within the white matter. Scores from both cervico-thoracic, and lumbosacral sections, respectively, were averaged to obtain the average inflammation score and demyelination scores. The most severe area of demyelination for each section was used to evaluate axonal pathology. […] The percentage axonal loss was determined by subtracting the number of points crossing axons subtracted by the total number of points of the stereological grid, divided by the total number of points of the stereological grid.

PLP-induced EAE [4] = assay: PLP-induced EAE mouse model (relapsing-remitting), clinical signs; format: in vivo, SJL/J mice; conditions: for Mortality: dead/total, to day 60; for Incidence: sick/total
in vivo = assay: in vivo; set-up: species or system male beagle dogs; conditions: dog, po
MOG-induced EAE [5] = assay: Histological scoring of spinal cords from MOG-induced EAE mice (inflammation, demyelination); format: in vivo, C57Bl/6 mice; conditions: 30 and 55 mg/kg twice a day and 110 mg/kg once a day; range over groups
Description: At the end of the observation period (day 30) the mice of the treatment groups were necropsied. The mice were deeply anesthetized with isoflourane and air and transcardially perfused, initially with a flushing solution (saline with heparin) until the perfusate was bloodless and then flushed with 4% buffered formalin. The vertebral columns (from the cervical region to the lumbar region) of each of the mice were dissected. The vertebral column was isolated by cutting away as much muscle as possible and sectioned distally at the last rib. The brain and the vertebral column were preserved in 4% buffered formalin.
Two transverse sections from each cervical and lumbar intumescence (cervico-thoracic and lumbo-sacral vertebral segments) were evaluated. […] Histological sections were scored blind. Inflammation was evaluated for both gray and white matter, demyelination was evaluated within white matter only, and axonal injury was evaluated within the white matter. […] The percentage axonal loss was determined by subtracting the number of points crossing axons subtracted by the total number of points of the stereological grid, divided by the total number of points of the stereological grid.
Two transverse sections from each cervical and lumbar intumescence (cervico-thoracic and lumbo-sacral vertebral segments) were evaluated. […]

SCH-induced EAE = SCH-induced EAE mouse model (acute), clinical signs; format: in vivo, (Balb/c×SJL) F1 (CSFL) mice; conditions: for GMS reduction / MMS reduction: vs vehicle
[6] = 110 mg/kg orally once a day, vs vehicle
[7] = 110 mg/kg orally twice a day (so in the source)

**Q.** For CN1CCN(c2cccc(Nc3nc4c(-c5ccc(S(C)(=O)=O)cc5)cccn4n3)c2)CC1 [Compound A, [8-(4-methanesulfonyl-phenyl)-[1,2,4]triazolo[1,5-a]pyridin-2-yl]-[3-(4-methyl-piperazin-1-yl)-phenyl]-amine], which “Duration (of disease)” value (MOG-induced EAE [1]; 30 mg/kg orally twice a day) is on record?
**A.** 3.7 ± 6.1 days

**Q.** What about the “GMS (group mean score)” value (MOG-induced EAE [1]; 30 mg/kg orally twice a day) of the same molecule?
**A.** 0.2±0.4

**Q.** What about the “MMS (mean maximal score)” value (MOG-induced EAE [1]; 30 mg/kg orally twice a day) of the same molecule?
**A.** 0.7±1.0

**Q.** And the Mortality (MOG-induced EAE [1]; 30 mg/kg orally twice a day, dead/total, to day 30)?
**A.** 0/15

**Q.** What about the “Percent Inhibition-1” value (MOG-induced EAE [1]; 30 mg/kg orally twice a day) of the same molecule?
**A.** 53.3%

**Q.** And the “Onset (of disease)” value (MOG-induced EAE [1]; 30 mg/kg orally twice a day)?
**A.** 23.7 ± 8.2 days

**Q.** And the “Percent Inhibition-3” value (MOG-induced EAE [1]; 30 mg/kg orally twice a day)?
**A.** 90.5%

**Q.** And the “Percent Inhibition-2” value (MOG-induced EAE [1]; 30 mg/kg orally twice a day)?
**A.** 79.4%

**Q.** What about the Incidence (MOG-induced EAE [1]; 30 mg/kg orally twice a day, to day 30) of the same molecule?
**A.** 7/15

**Q.** What about the “reduction in clinical scores compared to vehicle (FIG. 1)” value (MOG-induced EAE [1]; 30 mg/kg orally twice daily) of the same molecule?
**A.** 90.5%

**Q.** What about the “Duration (of disease)” value (MOG-induced EAE [1]; 55 mg/kg orally twice a day) of the same molecule?
**A.** 0.2 ± 0.8 days

**Q.** And the “GMS (group mean score)” value (MOG-induced EAE [1]; 55 mg/kg orally twice a day)?
**A.** 0.01±0.04

**Q.** And the “MMS (mean maximal score)” value (MOG-induced EAE [1]; 55 mg/kg orally twice a day)?
**A.** 0.1±0.3

**Q.** And the Mortality (MOG-induced EAE [1]; 55 mg/kg orally twice a day, dead/total, to day 30)?
**A.** 0/15

**Q.** And the “Percent Inhibition-1” value (MOG-induced EAE [1]; 55 mg/kg orally twice a day)?
**A.** 93.3%

**Q.** What about the “Onset (of disease)” value (MOG-induced EAE [1]; 55 mg/kg orally twice a day) of the same molecule?
**A.** 30.5 ± 2.1 days

**Q.** And the “Percent Inhibition-3” value (MOG-induced EAE [1]; 55 mg/kg orally twice a day)?
**A.** 99.5%

**Q.** And the “Percent Inhibition-2” value (MOG-induced EAE [1]; 55 mg/kg orally twice a day)?
**A.** 97.1%

**Q.** What about the Incidence (MOG-induced EAE [1]; 55 mg/kg orally twice a day, to day 30) of the same molecule?
**A.** 1/15

**Q.** What about the “reduction in clinical scores compared to vehicle (FIG. 1)” value (MOG-induced EAE [1]; 55 mg/kg orally twice daily) of the same molecule?
**A.** 99.5%

**Q.** What about the GMS reduction (MOG-induced EAE [1]; [6]) of the same molecule?
**A.** 98.5%

**Q.** And the MMS reduction (MOG-induced EAE [1]; [6])?
**A.** 97.1%

**Q.** What about the “reduction in clinical score over that of vehicle (FIG. 1)” value (MOG-induced EAE [1]; 110 mg/kg orally once daily) of the same molecule?
**A.** 98.5%

**Q.** What about the “Duration (of disease)” value (MOG-induced EAE [1]; [7]) of the same molecule?
**A.** 0.5 ± 2.1 days

**Q.** And the “GMS (group mean score)” value (MOG-induced EAE [1]; [7])?
**A.** 0.03 ± 0.1

**Q.** What about the “MMS (mean maximal score)” value (MOG-induced EAE [1]; [7]) of the same molecule?
**A.** 0.1 ± 0.3

**Q.** What about the Mortality (MOG-induced EAE [1]; 110 mg/kg orally twice a day (so in the source), dead/total, to day 30) of the same molecule?
**A.** 0/15

**Q.** And the “Percent Inhibition-1” value (MOG-induced EAE [1]; [7])?
**A.** 93.3%

**Q.** And the “Onset (of disease)” value (MOG-induced EAE [1]; [7])?
**A.** 30.5 ± 2.1 days

**Q.** And the “Percent Inhibition-3” value (MOG-induced EAE [1]; [7])?
**A.** 98.5%

**Q.** And the “Percent Inhibition-2” value (MOG-induced EAE [1]; [7])?
**A.** 97.1%

**Q.** And the Incidence (MOG-induced EAE [1]; 110 mg/kg orally twice a day (so in the source), to day 30)?
**A.** 1/15

**Q.** What about the Mortality (MOG-induced EAE [1]; any of the MOG-induced EAE treatment groups) of the same molecule?
**A.** not observed

**Q.** And the “impact on clinical score over vehicle” value (MOG-induced EAE [1]; once daily dosing at 10 mg/kg, 30 mg/kg and 60 mg/kg (data not shown))?
**A.** no significant impact over vehicle

**Q.** What about the “exposures associated with efficacy” value [2] of the same molecule?
**A.** 2000 to 4000 ng/mL

**Q.** What about the “inhibition of JAK2” value (JAK2) of the same molecule?
**A.** potent

**Q.** And the “reduction of inflammation (H&E staining)” value (PLP-induced EAE [3])?
**A.** significance in the reduction of inflammation

**Q.** What about the “GMS (1st and 2nd relapse)” value (PLP-induced EAE [4]; 30 mg/kg orally twice a day) of the same molecule?
**A.** 1.3 ± 0.9

**Q.** And the Mortality (PLP-induced EAE [4]; 30 mg/kg orally twice a day)?
**A.** 0/15

**Q.** And the Incidence (PLP-induced EAE [4]; 30 mg/kg orally twice a day)?
**A.** 15/15

**Q.** And the “reduction in overall mean clinical scores compared to vehicle (FIG. 4)” value (shortened to “reduction … (FIG. 4)”) (PLP-induced EAE [4]; 30 mg/kg twice daily)?
**A.** 25.9%

**Q.** What about the “reduction in clinical score over that of vehicle” value (PLP-induced EAE [4]; 60 mg/kg once daily (data not shown)) of the same molecule?
**A.** 20.1%

**Q.** What about the “GMS (1st and 2nd relapse)” value (PLP-induced EAE [4]; 60 mg/kg orally once a day) of the same molecule?
**A.** 1.4 ± 0.8

**Q.** What about the Mortality (PLP-induced EAE [4]; 60 mg/kg orally once a day) of the same molecule?
**A.** 0/15

**Q.** What about the Incidence (PLP-induced EAE [4]; 60 mg/kg orally once a day) of the same molecule?
**A.** 15/15

**Q.** What about the “GMS (1st and 2nd relapse)” value (PLP-induced EAE [4]; 60 mg/kg orally twice a day) of the same molecule?
**A.** 0.8 ± 0.4

**Q.** And the Mortality (PLP-induced EAE [4]; 60 mg/kg orally twice a day)?
**A.** 0/15

**Q.** And the Incidence (PLP-induced EAE [4]; 60 mg/kg orally twice a day)?
**A.** 15/15

**Q.** And the “reduction … (FIG. 4)” value (PLP-induced EAE [4]; 60 mg/kg twice daily)?
**A.** 49.9%

**Q.** And the “reduction in clinical score over that of vehicle” value (PLP-induced EAE [4]; 100 mg/kg once daily (data not shown))?
**A.** 54.9%

**Q.** And the “GMS (1st and 2nd relapse)” value (PLP-induced EAE [4]; 100 mg/kg orally once a day)?
**A.** 0.9 ± 0.5

**Q.** What about the Mortality (PLP-induced EAE [4]; 100 mg/kg orally once a day) of the same molecule?
**A.** 0/15

**Q.** What about the Incidence (PLP-induced EAE [4]; 100 mg/kg orally once a day) of the same molecule?
**A.** 15/15

**Q.** And the “GMS (1st and 2nd relapse)” value (PLP-induced EAE [4]; 100 mg/kg orally twice a day)?
**A.** 0.3 ± 0.3

**Q.** And the Mortality (PLP-induced EAE [4]; 100 mg/kg orally twice a day)?
**A.** 0/15

**Q.** What about the Incidence (PLP-induced EAE [4]; 100 mg/kg orally twice a day) of the same molecule?
**A.** 10/15

**Q.** And the “activity in the first relapse” value (PLP-induced EAE [4]; 100 mg/kg twice a day)?
**A.** 97.6%

**Q.** What about the “activity in the second relapse” value (PLP-induced EAE [4]; 100 mg/kg twice a day) of the same molecule?
**A.** 85.9%

**Q.** And the “reduction … (FIG. 4)” value (PLP-induced EAE [4]; 100 mg/kg twice daily)?
**A.** 86.1%

**Q.** What about the “dose relation of Cmax and AUC” value (in vivo; 30 mg/kg) of the same molecule?
**A.** linear, dose-related increases

**Q.** And the Cmax (in vivo; male, beagle, 100 mg/kg)?
**A.** 1760 ng/mL

**Q.** And the “reduction of demyelination over vehicle (LFB/PAS)” value (MOG-induced EAE [5])?
**A.** 17.3%-23.9%

**Q.** And the “reduction of spinal inflammation over vehicle (H&E)” value (MOG-induced EAE [5])?
**A.** 41.6%-57.5%

**Q.** And the “Clinical score reduction compared to vehicle (FIG. 3)” value (SCH-induced EAE; 30 mg/kg orally twice a day)?
**A.** 37.3%

**Q.** And the Duration (of disease) (SCH-induced EAE; 30 mg/kg orally twice a day)?
**A.** 8.2 ± 3.3 days

**Q.** And the Onset (of disease) (SCH-induced EAE; 30 mg/kg orally twice a day)?
**A.** 16.2 ± 2.0 days

**Q.** What about the GMS reduction (SCH-induced EAE; 30 mg/kg orally twice a day) of the same molecule?
**A.** 37.3%

**Q.** And the MMS reduction (SCH-induced EAE; 30 mg/kg orally twice a day)?
**A.** 17.5%

**Q.** And the “Clinical score reduction compared to vehicle (FIG. 3)” value (SCH-induced EAE; 60 mg/kg orally twice a day)?
**A.** 58.3%

**Q.** And the Duration (of disease) (SCH-induced EAE; 60 mg/kg orally twice a day)?
**A.** 8.4 ± 4.2 days

**Q.** And the Onset (of disease) (SCH-induced EAE; 60 mg/kg orally twice a day)?
**A.** 16.4 ± 3.0 days

**Q.** And the GMS reduction (SCH-induced EAE; 60 mg/kg orally twice a day)?
**A.** 58.3%

**Q.** What about the MMS reduction (SCH-induced EAE; 60 mg/kg orally twice a day) of the same molecule?
**A.** 30%

**Q.** And the Mortality (SCH-induced EAE; range over groups treated with Compound A, vehicle 40%)?
**A.** 20-80%
